One assay addresses Procathepsin L (Homo sapiens, UniProt P07711). Description: Inhibition of cathepsin L.
A further assay addresses Cathepsin B (Homo sapiens, UniProt P07858). Description: Inhibition of cathepsin B.
Assay [1] deals with Prostaglandin G/H synthase 1 (Homo sapiens, UniProt P23219). Description: Inhibition of COX1.
For assay [2], the target named is T1, Prostaglandin G/H synthase 2 (Homo sapiens, UniProt P35354).
T1 sequence (P35354 whole entry): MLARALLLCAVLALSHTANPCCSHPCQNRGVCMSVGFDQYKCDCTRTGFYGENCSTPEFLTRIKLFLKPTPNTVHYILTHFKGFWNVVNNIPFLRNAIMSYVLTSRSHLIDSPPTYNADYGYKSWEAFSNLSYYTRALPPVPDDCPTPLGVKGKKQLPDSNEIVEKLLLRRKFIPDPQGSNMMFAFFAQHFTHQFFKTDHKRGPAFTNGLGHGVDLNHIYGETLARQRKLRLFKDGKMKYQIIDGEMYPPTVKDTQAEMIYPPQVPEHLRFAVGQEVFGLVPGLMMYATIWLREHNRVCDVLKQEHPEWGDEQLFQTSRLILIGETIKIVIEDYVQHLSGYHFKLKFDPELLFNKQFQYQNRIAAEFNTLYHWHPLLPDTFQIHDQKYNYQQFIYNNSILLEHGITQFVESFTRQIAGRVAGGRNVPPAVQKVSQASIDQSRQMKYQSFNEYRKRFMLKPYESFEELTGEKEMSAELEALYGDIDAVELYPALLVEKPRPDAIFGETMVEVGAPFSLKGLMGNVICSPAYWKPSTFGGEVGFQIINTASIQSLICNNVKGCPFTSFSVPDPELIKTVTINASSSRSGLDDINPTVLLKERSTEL
Description: Inhibition of COX2.

The results in this text go back to ChEMBL document CHEMBL2034973, “Exploring activity cliffs in medicinal chemistry” (J Med Chem, 2012).

Molecules are shown by their SMILES. Bounds are passed on as bounds.

Sequence of Procathepsin L (P07711 whole entry): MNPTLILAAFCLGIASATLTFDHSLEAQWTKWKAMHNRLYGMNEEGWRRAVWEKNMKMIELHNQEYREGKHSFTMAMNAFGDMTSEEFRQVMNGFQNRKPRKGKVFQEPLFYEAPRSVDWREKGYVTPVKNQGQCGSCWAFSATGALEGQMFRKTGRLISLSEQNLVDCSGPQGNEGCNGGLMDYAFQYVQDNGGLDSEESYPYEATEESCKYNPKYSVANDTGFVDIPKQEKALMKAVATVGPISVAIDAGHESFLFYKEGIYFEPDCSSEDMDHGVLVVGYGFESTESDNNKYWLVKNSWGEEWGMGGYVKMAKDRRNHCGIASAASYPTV
Sequence of Prostaglandin G/H synthase 1 (P23219 whole entry): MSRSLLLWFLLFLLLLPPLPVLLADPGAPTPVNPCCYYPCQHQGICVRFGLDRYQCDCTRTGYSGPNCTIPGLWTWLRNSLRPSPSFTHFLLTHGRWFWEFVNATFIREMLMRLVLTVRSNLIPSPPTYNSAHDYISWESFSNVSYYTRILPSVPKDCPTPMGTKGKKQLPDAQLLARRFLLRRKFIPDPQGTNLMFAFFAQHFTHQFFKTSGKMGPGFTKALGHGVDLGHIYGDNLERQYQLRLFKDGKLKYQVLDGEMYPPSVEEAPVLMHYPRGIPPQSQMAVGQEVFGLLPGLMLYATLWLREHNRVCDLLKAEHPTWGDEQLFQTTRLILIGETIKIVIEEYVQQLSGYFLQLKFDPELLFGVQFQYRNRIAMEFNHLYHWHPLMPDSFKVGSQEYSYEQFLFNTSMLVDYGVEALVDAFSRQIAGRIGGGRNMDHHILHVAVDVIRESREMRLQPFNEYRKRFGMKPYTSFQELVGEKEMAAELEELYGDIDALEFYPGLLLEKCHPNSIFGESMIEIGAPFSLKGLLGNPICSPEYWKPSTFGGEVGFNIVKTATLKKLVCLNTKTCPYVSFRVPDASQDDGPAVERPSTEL

With `N#CCNC(=O)C1CCCCC1CSc1ccccc1` (stereo unspecified), the half-maximal inhibitory concentration (IC50) – broadly, the concentration at which inhibition is half-maximal – at Procathepsin L amounted to 26 µM; against Cathepsin B, 5.3 µM.
Consider `Cc1ccc(Nc2c(F)cccc2Cl)c(CC(=O)O)c1` [LUMIRACOXIB], for which the IC50 in assay [1] was 0.007 µM; in assay [2], over 10 µM.
As for `N#CCNC(=O)C1CCCCC1CSc1cccc(Cl)c1` (stereo unspecified), the IC50 at Procathepsin L was determined as 3.6 µM; against Cathepsin B it was 102 µM.
